Data from patent publication US20250051278A1, “[…]” (Reunion Neuroscience, Inc., priority 2021, published 2025).

Assays:
[1] = Pharmacokinetics in rats (intravenous and subcutaneous injection); type: in vivo; conditions: i.v. and s.c., 1.4-2 mg/kg, LCMS, rapidly converted to the active form
Experimental: The compound from example 9 was administered to rats by injection (intravenous and subcutaneous) with a sterile solution (2 mg/ml) at a rate of 1.4-2 mg/kg. Blood samples were taken at 15, 30, 45, 60, 120, 240 min and 360 min and analyzed by LCMS for drug and prodrug. PK profile for the prodrug and active species were obtained and relative bioavailability was determined for each of the routes of administration.
Pharmacokinetics of 1.34 mg/ml 4-HO-DiPT HCl administered by intravenous or subcutaneous injection were performed in parallel under identical conditions as above. […] Immediately obvious is the increased variability with the active species when administered s.c. and intravenous administrations.

[2] = Head Twitch Response (HTR) or Wet Dog Shakes (WDS) by visual observation; type: in vivo; conditions: rats; highest intensity of head twitch at the Tmax of the PK profile
Experimental: In some cases, Head Twitch Response (HTR) or Wet Dog Shakes (WDS) were recorded by visual observation and counting of the relevant muscle twitches.

[3] = Subjective effects in human volunteers (standardized questionnaires); type: in vivo
Experimental: The compound from example 6 (N,N diisopropyltryptamine-4-glutarate) is administered to human volunteers by subcutaneous injection of a sterile solution (1 mg/ml) at a dosage of 0.1-0.6 mg/kg. Blood samples are taken at 5, 15, 30, 45, 60, 120, 240 and 480 min and 24 h. Samples are analyzed by LCMS for drug and prodrug. Subjective effects are measured using standardized questionnaires.
The compound from example 2 (4-hemisuccinate of 4-OH-DiPT) is administered to human volunteers by oral ingestion of a tablet containing 50 mg of the prodrug. Blood samples are taken at 5, 15, 30, 45, 60, 120, 240 and 480 min and 24 h. Samples are analyzed by LCMS for drug and prodrug. Subjective effects are measured using standardized questionnaires.

[4] = Prodrug hydrolysis in dog plasma at 37° C; type: in vitro ADME; conditions: 1.0 ug/mL
Experimental: (§1) Pooled mixed gender human plasma (2 ml), mouse plasma, rat plasma and dog plasma were equilibrated at 37° C. The compound of example 9 was added so as to achieve a concentration of 1.0 ug/mL. Aliquots (50 uL) of the mixture were withdrawn at timed intervals (0, 0.004, 0.5, 1, 2 and 4 hours) and quenched with 200 μL of methanol/acetonitrile (1:1). The samples were vortexed and stored at −80° C. until analysis. Assays were done in triplicate. Control samples were done in phosphate buffered saline (PBS, pH 7.4) and simulated gastric fluid (SGF, pH 2). Analysis of samples as performed by HPLC-MS to determine the amounts of prodrug and drug in each sample tested. Table 1 provides the mean concentrations of prodrug remaining at different time points of the experiment.

[5] = Use in treatment of a human patient suffering depression; type: in vivo; conditions: i.m. or s.c. injection ca. 25 mg or oral ca. 50-200 mg
Experimental: The compound of example 6 (N,N diisopropyltryptamine-4-glutarate) is administered by i.m. or s.c. injection (ca. 25 mg; 0.4-0.5 mg/kg) to a human patient suffering depression, or by oral administration (ca. 50-200 mg; 0.8-3.2 mg/kg) with tablets. In another example of use, the compound of example 6 (4-hemiglutarate of 4-OH-DiPT) is similarly administered. Prior to the dosing session, the patient is qualified for the experience by measurement of depression scores, screened for exclusions (e.g. history of psychoses, unfavorable heart condition, pregnancy) and finally, the patient is encouraged to formulate an intent for the dosing session. Dosing is performed in a quiet clinic setting with the patient resting comfortably in an inclined, but unrestrained, position to avoid falls. The patients' eyes are covered, and music is applied. The drug is administered. After 4 h, the patient reports no longer feeling the effects of the drug and is asked to sit up while under supervision. Feeling normal, the patient is allowed to stand (supervised) and feeling in control, is allowed to move around. One hour later, the patient is discharged. Later by 24 h, the patient returns to the clinic to meet with a psychotherapist to recount the session. The patient records a depression score via questionnaire and is again discharged. […]

[6] = Control hydrolysis in phosphate buffered saline (PBS, pH 7.4); type: physicochemical; conditions: PBS (pH7)
Experimental: as §1

Solubility in water = type: physicochemical; conditions: thermodynamic from solid; HCl salt solid dissolved in water
Experimental: The structure was confirmed by NMR. Purity was determined by HPLC (>97%). The solid was resuspended in 1M HCl-dioxane to form the HCl salt which was filtered, washed with ether and dried. Yield (>95%, purity >95%; DSC endotherm 174C). The solid could be dissolved in water up to 50 mg/ml and lyophilized to form a white “cake”.

[7] = Prodrug hydrolysis in rat plasma at 37° C; type: in vitro ADME; conditions: 1.0 ug/mL
Experimental: as §1

[8] = Control hydrolysis in simulated gastric fluid (SGF, pH 2); type: physicochemical; conditions: SGF (pH2)
Experimental: as §1

[9] = Prodrug hydrolysis in pooled mixed gender human plasma at 37° C; type: in vitro ADME; conditions: 1.0 ug/mL
Experimental: as §1

[10] = Prodrug hydrolysis in mouse plasma at 37° C; type: in vitro ADME; conditions: 1.0 ug/mL
Experimental: as §1

## CC(C)N(CCc1c[nH]c2cccc(OC(=O)CCCC(=O)O)c12)C(C)C.Cl [Example 9, HCl salt of N,N diisopropyltryptamine-4-glutarate]
[1]
  Prodrug in blood samples after injection: not observed

## CC(C)N(CCc1c[nH]c2cccc(O)c12)C(C)C [Example 4-HO-DIPT, 4-hydroxy-N,N-diisopropyltryptamine]
[2]
  Intensity of the HTR versus plasma concentration of 4-HO-DIPT: proportional to the plasma concentration

## CC(C)N(CCc1c[nH]c2cccc(OC(=O)CCC(=O)O)c12)C(C)C [Example 2, N,N diisopropyltryptamine-4-succinate]
[3]; oral tablet 50 mg
  Subjective effects: intensity of psychoactivity: correlates with blood levels

## CC(C)N(CCc1c[nH]c2cccc(OC(=O)CCCC(=O)O)c12)C(C)C [Example 6, N,N diisopropyltryptamine-4-glutarate]
[4]; 0 h
  Percentage of remaining prodrug: 100%
[4]; 0.004 h
  Percentage of remaining prodrug: 100%
[4]; 0.5 h
  Percentage of remaining prodrug: 87%
[4]; 1 h
  Percentage of remaining prodrug: 79%
[4]; 2 h
  Percentage of remaining prodrug: 64%
[4]; 4 h
  Percentage of remaining prodrug: 39%
[3]; subcutaneous injection, 0.1-0.6 mg/kg
  Subjective effects: intensity of psychoactivity: correlates with blood levels
[5]
  Time after which the patient reports no longer feeling the effects of the drug: 4 h
[6]; 0 h
  Percentage of remaining prodrug: 100%
[6]; 4 h
  Percentage of remaining prodrug: 93%
Solubility in water
  solubility: ≤ 50 mg/mL
[7]; 0 h
  Percentage of remaining prodrug: 100%
[7]; 0.004 h
  Percentage of remaining prodrug: 0%
[7]; 0.5 h
  Percentage of remaining prodrug: 0%
[7]; 1 h
  Percentage of remaining prodrug: 0%
[7]; 2 h
  Percentage of remaining prodrug: 0%
[7]; 4 h
  Percentage of remaining prodrug: 0%
[8]; 0 h
  Percentage of remaining prodrug: 100%
[8]; 0.004 h
  Percentage of remaining prodrug: 100%
[8]; 0.5 h
  Percentage of remaining prodrug: 100%
[8]; 1 h
  Percentage of remaining prodrug: 100%
[8]; 4 h
  Percentage of remaining prodrug: 101%
[9]; 0 h
  Percentage of remaining prodrug: 100%
[9]; 0.004 h
  Percentage of remaining prodrug: 100%
[9]; 0.5 h
  Percentage of remaining prodrug: 3.0%
[9]; 1 h
  Percentage of remaining prodrug: 0.23%
[9]; 2 h
  Percentage of remaining prodrug: 0%
[9]; 4 h
  Percentage of remaining prodrug: 0%
[10]; 0 h
  Percentage of remaining prodrug: 100%
[10]; 0.004 h
  Percentage of remaining prodrug: 0%
[10]; 0.5 h
  Percentage of remaining prodrug: 0%
[10]; 1 h
  Percentage of remaining prodrug: 0%
[10]; 2 h
  Percentage of remaining prodrug: 0%
[10]; 4 h
  Percentage of remaining prodrug: 0%
